This is an account of results in patent US6476019B1, “Spirocyclic ligands for sigma receptors, and libraries and methods of use thereof” (Sepracor Inc., priority 1999, dated 2002).

≈ marks a conversion by molar mass, not a printed value. Read-outs that look alike come from different tables or passages of the source.

The test system of series [1] is [3H]haloperidol binding sites in guinea pig brain. Conditions: cited from earlier work.
Series [2] concerns the target T1, sigma-1 receptor (guinea pig brain) (Cavia porcellus, UniProt Q60492).
T1 construct: from tissue; host or cells: guinea pig brain
The series is described as follows: Antagonism of haloperidol binding to guinea pig sigma-1 receptors. Conditions: sigma-1, guinea pig brain; for % Inhibition: test concentration not given.

For another series, the target named is sigma-1 receptors (Cavia porcellus, UniProt Q60492). The experiment in a line: Behavioral receptor assays: sigma-1. Format: binding. Conditions: guinea pig. As to the method:
(§1) Various compounds of the present invention (19, 31, and 32) were evaluated in a group of assays based on mammalian cellular receptors associated with behavior. The group consisted of assays base on human dopamine D1, D2L, D3, D4.2, D4.4, D4.7, and D5 receptors, and the transporter; human serotonin 5-HT1A, 5-HT1B, 5-HT1D, 5-HT2A, 5-HT2B, 5-HT2C, 5-HT3, 5-HT5A, 5-HT6, and 5-HT7 receptors, and the human serotonin transporter; guinea pig 5-HT4 and sigma-1 receptors; rat sigma-2 and muscarinic receptors; and human NK1-3 receptors. The following table presents a subset of the results of these assays.

The next series deals with human serotonin 5-HT2A (Homo sapiens, UniProt P28223). The experiment in a line: Behavioral receptor assays: 5-HT2A. Conditions: read-out: Receptors (IC50) 5-HT2A. Type of series: binding. Here is the method: as §1
Sequence of human serotonin 5-HT2A (P28223 whole entry): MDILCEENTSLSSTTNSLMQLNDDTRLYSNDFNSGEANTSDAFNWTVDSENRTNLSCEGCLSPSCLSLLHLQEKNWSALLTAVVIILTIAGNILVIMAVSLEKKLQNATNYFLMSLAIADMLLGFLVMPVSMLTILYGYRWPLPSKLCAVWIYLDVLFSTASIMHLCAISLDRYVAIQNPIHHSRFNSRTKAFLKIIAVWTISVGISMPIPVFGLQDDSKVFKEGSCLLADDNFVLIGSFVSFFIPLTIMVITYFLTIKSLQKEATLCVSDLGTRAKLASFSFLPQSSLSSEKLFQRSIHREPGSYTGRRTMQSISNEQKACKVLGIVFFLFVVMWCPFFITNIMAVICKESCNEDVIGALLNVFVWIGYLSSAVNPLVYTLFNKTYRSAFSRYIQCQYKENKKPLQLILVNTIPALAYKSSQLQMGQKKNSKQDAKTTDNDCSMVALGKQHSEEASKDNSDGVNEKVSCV
A further series can be described thus: Permeability. Format: in vitro ADME. Conditions: not told; read-out: Permeability PupperX10^6 cm/s.
Series [3] deals with T2, CYP1A2 (Homo sapiens, UniProt P05177).
T2 sequence (P05177 1-516): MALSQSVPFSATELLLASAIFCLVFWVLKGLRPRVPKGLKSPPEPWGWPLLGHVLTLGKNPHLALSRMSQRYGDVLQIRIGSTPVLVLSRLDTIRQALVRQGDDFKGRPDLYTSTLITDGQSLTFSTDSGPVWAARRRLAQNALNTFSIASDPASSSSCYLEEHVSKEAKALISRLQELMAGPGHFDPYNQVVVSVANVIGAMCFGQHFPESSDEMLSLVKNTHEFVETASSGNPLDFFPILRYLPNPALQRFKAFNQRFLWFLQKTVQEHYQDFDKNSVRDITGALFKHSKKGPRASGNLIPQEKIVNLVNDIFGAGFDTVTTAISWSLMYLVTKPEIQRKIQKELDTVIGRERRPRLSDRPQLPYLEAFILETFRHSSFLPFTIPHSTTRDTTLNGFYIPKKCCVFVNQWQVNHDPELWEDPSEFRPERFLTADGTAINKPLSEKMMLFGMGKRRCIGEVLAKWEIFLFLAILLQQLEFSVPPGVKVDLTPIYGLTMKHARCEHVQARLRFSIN

The next series relates to GSH Level. The series is described as follows: Safety Assessment: GSH Level.
Another series deals with RedOx State. The series is described as follows: Safety Assessment: RedOx State.
The subject of the next series is DNA Synthesis. The experiment in a line: Safety Assessment: DNA Synthesis.
A further series relates to Cell Viability. The experiment in a line: Safety Assessment: Cell Viability.
Another series has as its system Protein Synthesis. The series is described as follows: Safety Assessment: Protein Synthesis.
In the next series the test system is Membrane Integrity. The series is described as follows: Safety Assessment: Membrane Integrity.
The next series has as its system Caspase-3. The experiment in a line: Safety Assessment: Caspase-3 Induction.
A further series has as its target CYP2C9 (Homo sapiens, UniProt P11712). The experiment in a line: In Vitro Metabolism (isozymes of P450) CYP2C9.
Another series deals with CYP2D6 (Homo sapiens, UniProt P10635). The series is described as follows: In Vitro Metabolism (isozymes of P450) CYP2D6.
Sequence of CYP2D6 (P10635 whole entry): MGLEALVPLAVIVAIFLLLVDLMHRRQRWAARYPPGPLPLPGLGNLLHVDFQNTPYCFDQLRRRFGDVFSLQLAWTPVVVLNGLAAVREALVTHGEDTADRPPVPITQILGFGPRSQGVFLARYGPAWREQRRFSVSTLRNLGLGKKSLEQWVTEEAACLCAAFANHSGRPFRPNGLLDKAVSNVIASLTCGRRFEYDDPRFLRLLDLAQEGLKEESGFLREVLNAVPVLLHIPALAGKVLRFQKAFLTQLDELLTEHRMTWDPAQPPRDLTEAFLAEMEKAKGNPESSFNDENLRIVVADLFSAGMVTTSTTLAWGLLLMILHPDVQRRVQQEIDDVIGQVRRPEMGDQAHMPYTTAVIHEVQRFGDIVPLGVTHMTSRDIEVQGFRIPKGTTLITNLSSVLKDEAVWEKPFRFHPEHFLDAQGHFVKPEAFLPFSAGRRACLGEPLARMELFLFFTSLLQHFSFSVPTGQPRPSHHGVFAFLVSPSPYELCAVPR
The target of another series is CYP3A4 (Homo sapiens, UniProt P08684). The series is described as follows: In Vitro Metabolism (isozymes of P450) CYP3A4.
Sequence of CYP3A4 (P08684 whole entry): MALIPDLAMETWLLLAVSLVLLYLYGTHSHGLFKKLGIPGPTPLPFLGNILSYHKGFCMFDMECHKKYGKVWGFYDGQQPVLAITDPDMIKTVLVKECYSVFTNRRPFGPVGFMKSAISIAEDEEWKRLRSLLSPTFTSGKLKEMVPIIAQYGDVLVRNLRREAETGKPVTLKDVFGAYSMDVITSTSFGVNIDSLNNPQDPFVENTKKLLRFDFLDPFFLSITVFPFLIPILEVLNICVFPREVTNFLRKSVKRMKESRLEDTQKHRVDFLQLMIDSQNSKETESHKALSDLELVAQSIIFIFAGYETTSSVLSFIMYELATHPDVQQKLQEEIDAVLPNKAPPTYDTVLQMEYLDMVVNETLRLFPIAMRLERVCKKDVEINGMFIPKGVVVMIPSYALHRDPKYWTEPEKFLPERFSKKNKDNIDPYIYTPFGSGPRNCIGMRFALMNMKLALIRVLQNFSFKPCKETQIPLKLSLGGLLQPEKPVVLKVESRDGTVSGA
Another series has as its target CYP2C19 (Homo sapiens, UniProt P33261). The experiment in a line: In Vitro Metabolism (isozymes of P450) CYP2C19.
For another series, the system named is Male Wistar rats. The experiment in a line: MK-801-Induced Psychosis Model. Type of series: in vivo, rat. To be noted: rat, 0.5, 1.0 and 5.0 mg/kg i.p.; MK-801 0.3 mg/kg i.p. The text has this:
The non-competitive NMDA receptor antagonist MK-801 induces stereotypies and hyperactivity in rodents (1) by interacting with the NMDA receptor-associated ion channel. Phencyclidine, which also interferes with the NMDA receptor, produces psychotic effects in humans similar in many respects to schizophrenia. […] Therefore the MK-801-induced activity and stereotypies in rats may represent an appropriate animal model to test the potential efficacy of antipsychotic drugs.
Male Wistar rats (Iffa Crédo, St Germain/l'Arbresle, France), weight 250-300 g were housed 2 per cage on a 12 h/12 h light dark cycle (lights on at 7.00 a.m.) at a room temperature of 21±2° C. for a minimum of 5 days before testing. All animals had access to commercial food and tap water ad libitum.
On the day of the experiment, rats were treated with either reference drug vehicle, the reference drugs haloperidol or clozapine the test compound vehicle or test compounds. After administration, the rats were returned to their home cages for 15 minutes. […] The remaining rats treated with placebo received a second injection of vehicle. The standard injection volume was 2.0 ml/kg. After 10 minutes in the home cages, rats were transferred to the test box (Plexiglas, 29×12×12 cm), 5 minutes before the assessment for accomodation. The test box was cleaned with 70% ethanol before each assessment. Stereotypies, defined as wall-contacts with the snout, and locomotion, defined as turn-rounds of 180°, were assessed during 5 minute periods.

Another series has as its target human sigma receptor (Homo sapiens, UniProt Q99720). The experiment in a line: Human sigma receptor assay. Type of series: binding. Conditions: read-out: IC50 Against Human Sigma Receptor. Here is the method:
(§2) The ability of test compounds to displace sigma ligands in vitro was determined by the methods of de Costa et al. (FEBS Lett. 251:53 (1989)) and De Haven-Hudkine et al. (Eur. J. Pharmacol. 227:372 (1992)) having guinea pig as a receptor source. Whereas, the methods of Gamapatju et al. (J. Pharm.&Exp. 289:251 (1999)) were utilized for human sigma receptors.

The target of series [4] is T3, guinea pig sigma receptor (Cavia porcellus, UniProt Q60492).
T3 construct: having guinea pig as a receptor source; from tissue; host or cells: guinea pig
T3 sequence (Q60492 whole entry): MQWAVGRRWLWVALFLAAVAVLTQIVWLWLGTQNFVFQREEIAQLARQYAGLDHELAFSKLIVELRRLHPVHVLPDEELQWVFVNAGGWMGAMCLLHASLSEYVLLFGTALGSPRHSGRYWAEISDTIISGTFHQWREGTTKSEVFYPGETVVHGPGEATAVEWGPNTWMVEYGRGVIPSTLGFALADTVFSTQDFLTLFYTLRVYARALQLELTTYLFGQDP
The series is described as follows: Guinea pig sigma receptor assay. To be noted: read-out: IC50 Against Guinea Pig Sigma Receptor. Type of series: binding. Here is the method: as §2

For series [5], the target named is T2, CYP1A2. The experiment in a line: In Vitro Metabolism (isozymes of P450) CYP1A2.

Sequence of CYP2C9 (P11712 whole entry): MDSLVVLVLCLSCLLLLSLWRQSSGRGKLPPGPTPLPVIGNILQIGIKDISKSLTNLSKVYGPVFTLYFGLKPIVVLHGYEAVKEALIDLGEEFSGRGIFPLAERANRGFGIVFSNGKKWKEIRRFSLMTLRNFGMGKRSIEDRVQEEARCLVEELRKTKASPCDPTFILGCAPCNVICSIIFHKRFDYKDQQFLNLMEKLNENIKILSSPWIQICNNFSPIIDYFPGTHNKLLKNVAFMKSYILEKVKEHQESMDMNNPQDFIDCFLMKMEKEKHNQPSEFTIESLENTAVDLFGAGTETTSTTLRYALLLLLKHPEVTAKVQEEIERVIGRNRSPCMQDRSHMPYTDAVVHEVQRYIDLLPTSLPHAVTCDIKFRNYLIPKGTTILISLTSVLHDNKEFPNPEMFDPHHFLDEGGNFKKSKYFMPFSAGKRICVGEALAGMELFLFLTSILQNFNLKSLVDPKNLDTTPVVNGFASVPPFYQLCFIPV
Sequence of CYP2C19 (P33261 whole entry): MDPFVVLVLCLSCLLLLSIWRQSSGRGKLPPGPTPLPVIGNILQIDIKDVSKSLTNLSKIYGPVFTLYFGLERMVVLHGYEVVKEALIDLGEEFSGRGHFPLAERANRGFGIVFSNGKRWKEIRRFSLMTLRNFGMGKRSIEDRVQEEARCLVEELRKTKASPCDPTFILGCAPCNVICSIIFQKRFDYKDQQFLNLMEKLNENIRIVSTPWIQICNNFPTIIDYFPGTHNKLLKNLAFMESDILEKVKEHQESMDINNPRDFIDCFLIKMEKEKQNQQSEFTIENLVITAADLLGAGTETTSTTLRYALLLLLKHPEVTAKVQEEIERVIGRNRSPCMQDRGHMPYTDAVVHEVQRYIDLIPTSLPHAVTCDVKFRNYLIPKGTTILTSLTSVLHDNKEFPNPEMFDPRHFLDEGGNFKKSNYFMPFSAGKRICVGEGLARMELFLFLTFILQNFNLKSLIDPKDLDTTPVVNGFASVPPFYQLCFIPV
T1 sequence (Q60492 whole entry): as the sequence (Q60492 whole entry) above
Sequence of human sigma receptor (Q99720 whole entry): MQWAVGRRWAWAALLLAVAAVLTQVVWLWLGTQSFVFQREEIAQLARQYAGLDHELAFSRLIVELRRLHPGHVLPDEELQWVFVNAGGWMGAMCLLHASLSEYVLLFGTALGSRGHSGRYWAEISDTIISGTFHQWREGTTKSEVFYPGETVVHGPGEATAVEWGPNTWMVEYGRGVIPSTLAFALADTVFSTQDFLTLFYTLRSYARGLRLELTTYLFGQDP
Sequence of sigma-1 receptors (Q60492 whole entry): as the sequence (Q60492 whole entry) above

Take `CC(C)=CCN1CCC2(C)c3cc(O)ccc3CC1C2C` (single isomer, unassigned; (+)) [(+)-pentazocine]: in series [1], the “potency in displacing [3H]haloperidol relative to spiperone” value was “about 10 times”.

Broadly, the % Inhibition is the percentage by which the read-out fell short of the control. For orientation: IC50 means the point on the concentration scale where inhibition reaches its midpoint. For the compound `O=C1CCC2(CCN(CCc3ccccc3)CC2)Nc2ccccc21` [Compound 19], the “% Inhibition” value in series [2] is greater than 50%. Moreover, the concentration for half-maximal inhibition (IC50) on sigma-1 receptors was less than 100 nM; at human serotonin 5-HT2A, less than 1000 nM.

What is called solubility is the concentration that dissolves in the medium under given conditions. High values mean much dissolved substance, low ones little dissolved substance. As a reminder, the fraction unbound is the share of the substance not bound to proteins or other matrix. High values mean weak binding, low ones extensive binding. With `O=C1CCC2(CCN(Cc3nc4ccccc4[nH]3)CC2)Nc2ccccc21` [Compound 21, 1′-(2-methylbenzimidazole)-3,4-dih drospiro[5H-1-benzazepine-2(1H)-4′-piperidin]-5-one], in series [2], the concentration for half-maximal inhibition (IC50) was less than 1000 nM and the “% Inhibition” value is given as greater than 50%. In addition, the Papp in the series “Permeability” came out at 1.95 ×10⁻⁶ cm/s. This compound also registered a CYP1A2 at CYP1A2 [3] of 20 % inhibition. Besides, in the series “Log D7.5”, the “Log D7.5” value was 1.22. The same compound had a solubility in “Solubility” of 210 µM (≈ 75.6 µg/mL). Further, the fraction unbound in the series “Protein Binding” came to 0.01. The “Metabolic Stability (% parent remaining)” value in the series “Metabolic Stability” is 17 % parent remaining. Besides, the “GSH Level (% Control)” value in the series with GSH Level is given as less than 10 % Control. The “RedOx State” value in the series on RedOx State is 33 % inhibition. Besides, the “DNA Synthesis” value in the series on DNA Synthesis is on record as 29 % inhibition. Besides, the “Cell Viability” value in the series on Cell Viability is recorded as less than 10 % inhibition. In addition, the “Protein Synthesis” value with Protein Synthesis was determined as 14 % inhibition. Moreover, the “Membrane Integrity” value in the series on Membrane Integrity was less than 10 % inhibition. In addition, the “Caspase-3 Induction % Induction” value with Caspase-3 is less than 10 % Induction. At CYP2C9, the CYP2C9 is on record as 19 % inhibition. For the same compound, the CYP2D6 on CYP2D6 is listed as 100 % inhibition. Moreover, on CYP3A4, the CYP3A4 was determined as 69 % inhibition. For the same compound, the CYP2C19 on CYP2C19 stood at 20 % inhibition.

Consider `O[C@H]1CCC2(CCN(Cc3ccc(F)cc3)CC2)Nc2ccccc21` [Compound 49], for which the Papp in the series “Permeability” was found to be 27.5 ×10⁻⁶ cm/s. Further, in the series on Male Wistar rats, the MK-801-induced locomotion entry was “did not reduce” and the MK-801-induced stereotypies result is “did not reduce”. Further, the IC50 at human sigma receptor is less than 100 nM. Also, the concentration for half-maximal inhibition (IC50) in series [4] is less than 100 nM. Further, the “Log D7.5” value in “Log D7.5” was 1.59. The compound also returned a solubility in “Solubility” of 181 µM (≈ 61.6 µg/mL). For the same compound, in “Protein Binding”, the fraction unbound was 0.37. In addition, the “Metabolic Stability (% parent remaining)” value in the series “Metabolic Stability” was 69 % parent remaining. Also, the “GSH Level (% Control)” value in the series on GSH Level is reported as less than 10 % Control. In addition, the “RedOx State” value with RedOx State is on record as 15 % inhibition. For the same compound, the “DNA Synthesis” value in the series with DNA Synthesis is less than 10 % inhibition. For the same compound, the “Cell Viability” value in the series on Cell Viability is recorded as less than 10 % inhibition. For the same compound, the “Protein Synthesis” value with Protein Synthesis is reported as less than 10 % inhibition. For the same compound, the “Membrane Integrity” value with Membrane Integrity is less than 10 % inhibition. Also, the “Caspase-3 Induction % Induction” value with Caspase-3 was less than 10 % Induction. The CYP1A2 at CYP1A2 [5] is 13 % inhibition. For the same compound, the CYP2C9 on CYP2C9 amounted to 18 % inhibition. In addition, the CYP2D6 at CYP2D6 came out at 44 % inhibition. The compound further registered a CYP3A4 at CYP3A4 of 17 % inhibition. Further, on CYP2C19, the CYP2C19 was 19 % inhibition.

As to `O[C@@H]1CCC2(CCN(Cc3ccc(F)cc3)CC2)Nc2ccccc21` [Compound 50], in the series “Permeability”, the Papp is 25.8 ×10⁻⁶ cm/s. For the same compound, in the series with Male Wistar rats, the MK-801-induced locomotion entry is on record as “caused a reduction” and the MK-801-induced stereotypies result is recorded as “caused a reduction”. The IC50 at human sigma receptor is less than 1000 nM. Besides, the concentration for half-maximal inhibition (IC50) in [4] was less than 100 nM. In addition, in “Log D7.5”, the “Log D7.5” value is listed as 1.62. The compound also returned a solubility in “Solubility” of 205 µM (≈ 69.8 µg/mL). For the same compound, the fraction unbound in the series “Protein Binding” was 0.38. Also, the “Metabolic Stability (% parent remaining)” value in “Metabolic Stability” was 87 % parent remaining. Also, in the series on GSH Level, the “GSH Level (% Control)” value was less than 10 % Control. Also, the “RedOx State” value in the series with RedOx State is 12 % inhibition. Moreover, the “DNA Synthesis” value with DNA Synthesis was less than 10 % inhibition. For the same compound, the “Cell Viability” value in the series with Cell Viability is listed as less than 10 % inhibition. Further, the “Protein Synthesis” value with Protein Synthesis is less than 10 % inhibition. For the same compound, the “Membrane Integrity” value in the series on Membrane Integrity was less than 10 % inhibition. In addition, the “Caspase-3 Induction % Induction” value in the series with Caspase-3 is less than 10 % Induction. For the same compound, on CYP1A2 [5], the CYP1A2 came to 14 % inhibition. Also, on CYP2C9, the CYP2C9 worked out at 19 % inhibition. At CYP2D6, this compound returned a CYP2D6 of 31 % inhibition. The CYP3A4 on CYP3A4 is given as 19 % inhibition. On CYP2C19, the CYP2C19 was found to be 19 % inhibition.
